Measured values published in patent US9879008B2, “2,3,4,6-tetra-substituted benzene-1,5-diamine derivatives, preparation method therefor and medicinal use thereof” (SHANGHAI HAIYAN PHARMACEUTICAL TECHNOLOGY CO., LTD., priority 2014, dated 2018).
Read-outs that look alike come from different tables or passages of the source.

How the values were obtained:
H1975 cell = assay: MTT cytostatic activity, H1975 cell; assay type: cell-based; conditions: for IC50: Homo sapiens, read-out: H1975 cell (IC50/nM); for Selective inhibitory activity against cells [IC50(A431 cell)/IC50(H1975 cell)]: ratio of cell IC50 values;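 as to all read-outs here: cells in 96-well plates exposed to compound for 72 h, then given MTT for a further 4 h at 37 °C under 5% CO2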
NIH3T3 cell = assay: MTT cytotoxicity against NIH3T3 cells; assay type: cell-based; conditions: Mus musculus, read-out: MTT assay against NIH3T3 cell (IC50/nM)
wild-type EGFR kinase = molecular target: T1, wild-type EGFR kinase (Homo sapiens, UniProt P00533); assay: z-lyte inhibition test against wild-type EGFR kinase; assay type: biochemical; conditions: 10 μM ATP, read-out: EGFR WT (IC50/nM);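 also: reaction volume 10 µL holding 0.8 ng/µL enzyme and 2 µM Tyr04 substrate, with DMSO at 2% once compounds are present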
T1 construct: purchased Invitrogen PV3872
T1 sequence (P00533 25-1210): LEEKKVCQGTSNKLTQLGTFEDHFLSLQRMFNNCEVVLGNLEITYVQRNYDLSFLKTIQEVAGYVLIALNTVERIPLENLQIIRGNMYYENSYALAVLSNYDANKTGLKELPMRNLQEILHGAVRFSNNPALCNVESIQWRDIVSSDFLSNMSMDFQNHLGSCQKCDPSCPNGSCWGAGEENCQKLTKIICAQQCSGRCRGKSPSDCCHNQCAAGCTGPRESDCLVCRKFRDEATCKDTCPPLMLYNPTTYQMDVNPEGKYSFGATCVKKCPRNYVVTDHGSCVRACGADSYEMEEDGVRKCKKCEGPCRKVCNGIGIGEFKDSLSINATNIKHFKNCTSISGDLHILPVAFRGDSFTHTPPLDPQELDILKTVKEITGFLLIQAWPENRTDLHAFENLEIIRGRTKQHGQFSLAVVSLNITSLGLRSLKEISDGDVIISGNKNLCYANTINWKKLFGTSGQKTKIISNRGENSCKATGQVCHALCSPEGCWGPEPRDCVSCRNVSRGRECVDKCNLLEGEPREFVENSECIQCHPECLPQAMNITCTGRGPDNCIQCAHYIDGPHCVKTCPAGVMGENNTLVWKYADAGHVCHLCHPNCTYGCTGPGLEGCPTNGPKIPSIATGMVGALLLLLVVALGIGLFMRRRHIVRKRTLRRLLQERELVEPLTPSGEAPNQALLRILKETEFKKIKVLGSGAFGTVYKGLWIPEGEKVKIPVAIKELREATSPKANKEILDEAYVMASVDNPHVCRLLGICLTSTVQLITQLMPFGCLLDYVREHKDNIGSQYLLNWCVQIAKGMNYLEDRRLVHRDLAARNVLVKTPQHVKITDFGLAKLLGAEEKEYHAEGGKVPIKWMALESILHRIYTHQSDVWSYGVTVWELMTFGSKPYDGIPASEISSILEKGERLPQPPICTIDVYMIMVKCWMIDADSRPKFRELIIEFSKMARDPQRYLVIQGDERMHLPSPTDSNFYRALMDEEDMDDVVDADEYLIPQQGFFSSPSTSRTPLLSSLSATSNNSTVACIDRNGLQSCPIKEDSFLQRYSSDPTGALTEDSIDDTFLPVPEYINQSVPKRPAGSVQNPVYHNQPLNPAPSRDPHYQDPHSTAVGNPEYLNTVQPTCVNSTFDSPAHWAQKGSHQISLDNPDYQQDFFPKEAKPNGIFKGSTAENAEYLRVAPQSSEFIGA

A431 cell = assay: MTT cytostatic activity, A431 cell; assay type: cell-based; conditions: Homo sapiens, A-431; MTT, 72 h; read-out: A431 cell (IC50/nM)
A431 cells = assay: ELISA assay for cell activity, EGF-treated A431 cells; assay type: cell-based; conditions: Homo sapiens, A-431, compound 1 h, then EGF 45 min;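 also: Serum-starved A431 cells, ELISA on lysates read as OD450 minus OD570, inhibition scaled between EGF-stimulated wells (0%) and unstimulated cell control (100%), DMSO 0.5% final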
H1975 cells = assay: ELISA assay for cell activity of EGFR T790M inhibitor, H1975 cells; conditions: for Selective inhibitory activities against cell [IC50(A431 cell)/IC50(H1975 cell)]: ELISA, ratio of cell IC50 values; for IC50: Homo sapiens, NCI-H1975, 1 h, read-out: H1975 cell (IC50/nM)
[1] = NIH3T3, cytotoxicity, MTT, 72 h

| SMILES | IC50 (wild-type EGFR kinase) | IC50 (NIH3T3 cell; [1]) | also measured |
| --- | --- | --- | --- |
| CN(C)C/C=C/C(=O)Nc1cc2c(Nc3ccc(F)c(Cl)c3)ncnc2cc1O[C@H]1CCOC1 [BIBW2992, Afatinib, reference compound] |  |  | IC50 (H1975 cell; NCI-H1975, 72 h): 88 nM; IC50 (NIH3T3 cell; NIH3T3, 72 h): 2750 nM |
| C=CC(=O)Nc1cc(Nc2nccc(OC3CCN(C(=O)OC(C)(C)C)CC3)n2)c(OC)cc1N1CCC(N(C)C)CC1 [Compound J-2, tert-butyl 4-(2-(5-acrylamido-4-(4-(dimethylamino)piperidine-1-yl)-2-methoxyphenylamino)pyrimidine-4-oxy)piperidine-1-formate] | 154 nM |  |  |
| C=CC(=O)Nc1cc(Nc2ncc(Cl)c(OC3CCN(S(C)(=O)=O)CC3)n2)c(OC)cc1N(C)CCN(C)C [Compound J-3, N-(5-(5-chloro-4-(1-(methylsulfonyl)piperidine-4-oxy)pyrimidine-2-amino)-2-((2-(dimethylamino)ethyl)(methyl)amino)-4-methoxylphenyl) acrylamide] | 38 nM | > 10000 nM |  |
| C=CC(=O)Nc1cc(Nc2nccc(OC3CCN(S(C)(=O)=O)CC3)n2)c(OC)cc1N(C)CCN(C)C [Compound J-4, N-(2-((2-(dimethylamino)ethyl)(methyl)amino)-4-methoxy-5-(4-(1-(methylsulfonyl)piperidine-4-oxy)pyrimidine-2-amino)phenyl) acrylamide] | 52 nM | > 10000 nM |  |
| C=CC(=O)Nc1cc(Nc2nccc(OC3CCN(S(C)(=O)=O)CC3)n2)c(OC)cc1N1CCC(N(C)C)CC1 [Compound J-5, N-(2-(4-(dimethylamino)piperidine-1-yl)-4-methoxy-5-(4-(1-(methylsulfonyl)piperidine-4-oxy)pyrimidine-2-amino)phenyl)acrylamide] | 51 nM | > 10000 nM |  |
| C=CC(=O)Nc1cc(Nc2nccc(OC3CN(C(=O)c4ccccc4)C3)n2)c(OC)cc1N(C)CCN(C)C [Compound J-6] |  | > 10000 nM |  |
| C=CC(=O)Nc1cc(Nc2nccc(OC3CN(C(=O)c4ccccc4)C3)n2)c(OC)cc1N1CCC(N(C)C)CC1 [Compound J-8, N-(5-(4-(1-benzoylaza-3-oxy)pyrimidine-2-amino)-2-(4-(dimethylamino)piperidine-1-yl)-4-methoxylphenyl)acrylamide] |  | > 10000 nM |  |
| C=CC(=O)Nc1cc(Nc2nccc(OC3CN(S(=O)(=O)c4ccccc4)C3)n2)c(OC)cc1N1CCC(N(C)C)CC1 [Compound J-9, N-(2-(4-(dimethylamino)piperidine-1-yl)-4-methoxy-5-(4-(1-(phenylsulfonyl)azetidine-3-oxy)pyrimidino)phenyl)acrylamide] | 72 nM | > 10000 nM |  |
| C=CC(=O)Nc1cc(Nc2nccc(OC3CN(S(C)(=O)=O)C3)n2)c(OC)cc1N1CCC(N(C)C)CC1 [Compound J-10, N-(2-(4-(dimethylamino)piperidine-1-yl)-4-methoxy-5-(4-(1-(methylsulfonyl)azetidine-3-oxy)pyrimidine-2-amino)phenyl)acrylamide] |  | > 10000 nM | IC50 (H1975 cell; NCI-H1975, MTT, 72 h): 31 nM; Selective inhibitory activity against cells [IC50(A431 cell)/IC50(H1975 cell)] (H1975 cell; MTT): 19.2; IC50 (A431 cell): 596 nM |
| C=CC(=O)Nc1cc(Nc2nccc(OC3CN(c4cnc5ccccc5c4)C3)n2)c(OC)cc1N(C)CCN(C)C [Compound J-14, N-(2-((2-(dimethylamino)ethyl)(methyl)amino)-4-methoxy-5-(4-(1-(quinoline-3-yl)azetidine-3-oxy)pyrimidine-2-amino)phenyl)acrylamide] |  | > 10000 nM |  |
| C=CC(=O)Nc1cc(Nc2nccc(OC3CN(c4cnc5c(cnn5C)c4)C3)n2)c(OC)cc1N(C)CCN(C)C [Compound J-15] |  | > 10000 nM | IC50 (A431 cells): 835 nM; Selective inhibitory activities against cell [IC50(A431 cell)/IC50(H1975 cell)] (H1975 cells): 11.1; IC50 (H1975 cells): 75 nM |
| C=CC(=O)Nc1cc(Nc2nccc(OC3CN(c4cnc5c(ccn5C)c4)C3)n2)c(OC)cc1N(C)CCN(C)C [Compound J-16] |  | > 10000 nM |  |
| C=CC(=O)Nc1cc(Nc2nccc(OC3CN(c4cnc5c(cnn5C)c4)C3)n2)c(OC)cc1N1CCC(N(C)C)CC1 [Compound J-19] |  | > 10000 nM |  |
| C=CC(=O)Nc1cc(Nc2nccc(OC3CN(C(C)=O)C3)n2)c(OC)cc1N1CCC(N(C)C)CC1 [Compound J-20] | 69 nM | > 10000 nM | IC50 (H1975 cell; NCI-H1975, MTT, 72 h): 138 nM; Selective inhibitory activity against cells [IC50(A431 cell)/IC50(H1975 cell)] (H1975 cell; MTT): 38.8; IC50 (A431 cell): 5350 nM |
| C=CC(=O)Nc1cc(Nc2nccc(OC3CN(C(=O)c4ccc(F)cc4)C3)n2)c(OC)cc1N(C)CCN(C)C [Compound J-21] |  | > 10000 nM |  |
| C=CC(=O)Nc1cc(Nc2nccc(OC3CN(C(=O)c4ccc(C)cc4)C3)n2)c(OC)cc1N(C)CCN(C)C [Compound J-22] |  | > 10000 nM |  |
| C=CC(=O)Nc1cc(Nc2nccc(OC3CN(C(C)=O)C3)n2)c(OC)cc1N(C)CCN(C)C [Compound J-23] | 32 nM | > 10000 nM |  |
| C=CC(=O)Nc1cc(Nc2nccc(OC3CN(C(=O)c4ccc(C)cc4)C3)n2)c(OC)cc1N1CCC(N(C)C)CC1 [Compound J-24] | 119 nM | 6000 nM |  |
| C=CC(=O)Nc1cc(Nc2ncc(C#N)c(OC3CN(S(C)(=O)=O)C3)n2)c(OC)cc1N1CCC(N(C)C)CC1 [Compound J-32] | 11 nM | > 10000 nM |  |

| SMILES | IC50 (wild-type EGFR kinase) | IC50 (NIH3T3 cell; [1]) | also measured |
| --- | --- | --- | --- |
| C=CC(=O)Nc1cc(Nc2ncc(Cl)c(OCC3CN(C(C)=O)C3)n2)c(OC)cc1N1CCC(N(C)C)CC1 [Compound J-33] | 597 nM | > 10000 nM |  |
| C=CC(=O)Nc1cc(Nc2ncc(Cl)c(OCC3CN(S(C)(=O)=O)C3)n2)c(OC)cc1N1CCC(N(C)C)CC1 [Compound J-34] | 113 nM | > 10000 nM |  |
| C=CC(=O)Nc1cc(Nc2nccc(OC3CCCN(S(C)(=O)=O)CC3)n2)c(OC)cc1N(C)CCN(C)C (stereo not drawn) [Compound J-36] | 17 nM | > 10000 nM | IC50 (H1975 cell; NCI-H1975, MTT, 72 h): 69 nM; Selective inhibitory activity against cells [IC50(A431 cell)/IC50(H1975 cell)] (H1975 cell; MTT): 47.3; IC50 (A431 cell): 3260 nM |
| C=CC(=O)Nc1cc(Nc2ncc(Cl)c(O[C@H]3CCCN(S(C)(=O)=O)C3)n2)c(OC)cc1N1CCC(N(C)C)CC1 [Compound J-42] |  | > 10000 nM |  |
| C=CC(=O)Nc1cc(Nc2ncc(F)c(O[C@@H]3CCN(C(C)=O)C3)n2)c(OC)cc1N1CCC(N(C)C)CC1 [Compound J-49] | 259 nM |  |  |
| C=CC(=O)Nc1cc(Nc2ncc(F)c(O[C@@H]3CCN(S(C)(=O)=O)C3)n2)c(OC)cc1N1CCC(N(C)C)CC1 [Compound J-51] | 26 nM | > 10000 nM | IC50 (A431 cells): 937 nM; Selective inhibitory activities against cell [IC50(A431 cell)/IC50(H1975 cell)] (H1975 cells): 15; IC50 (H1975 cells): 64 nM |
| C=CC(=O)Nc1cc(Nc2ncc(F)c(O[C@H]3CCN(S(C)(=O)=O)C3)n2)c(OC)cc1N1CCC(N(C)C)CC1 [Compound J-52] | 47 nM | > 10000 nM | IC50 (A431 cells): 700 nM; Selective inhibitory activities against cell [IC50(A431 cell)/IC50(H1975 cell)] (H1975 cells): 15; IC50 (H1975 cells): 47 nM |
| C=CC(=O)Nc1cc(Nc2nccc(OC3CN(CCF)C3)n2)c(OC)cc1N(C)CCN(C)C [Compound J-53, N-(2-((2-(dimethylamino)ethyl)(methyl)amino)-5-(4-(1-(2-fluroethyl)azetidine-3-oxy)pyrimidine-2-amino)-4-methoxyphenyl) acrylamide] |  | > 10000 nM | IC50 (A431 cells): 225 nM; Selective inhibitory activities against cell [IC50(A431 cell)/IC50(H1975 cell)] (H1975 cells): 7.5; IC50 (H1975 cells): 30 nM |
| C=CC(=O)Nc1cc(Nc2ncc(Cl)c(OC3CN(CCF)C3)n2)c(OC)cc1N1CCC(N(C)C)CC1 [Compound J-54] | 376 nM | > 10000 nM | IC50 (H1975 cell; NCI-H1975, MTT, 72 h): 92 nM; Selective inhibitory activity against cells [IC50(A431 cell)/IC50(H1975 cell)] (H1975 cell; MTT): 66.1; IC50 (A431 cell): 6080 nM |
| C=CC(=O)Nc1cc(Nc2ncc(Cl)c(NC3CN(C(C)=O)C3)n2)c(OC)cc1N1CCC(N(C)C)CC1 [Compound J-61] | 181 nM | > 10000 nM |  |
| C=CC(=O)Nc1cc(Nc2ncc(F)c(NC3CN(S(C)(=O)=O)C3)n2)c(OC)cc1N1CCC(N(C)C)CC1 [Compound J-62] | 6 nM | > 10000 nM |  |
| C=CC(=O)Nc1cc(Nc2ncc(Cl)c(N[C@@H]3CCCN(CCF)C3)n2)c(OC)cc1N1CCC(N(C)C)CC1 [Compound J-67] | 2 nM |  |  |
| C=CC(=O)Nc1cc(Nc2ncc(Cl)c(N[C@H]3CCCN(CCF)C3)n2)c(OC)cc1N1CCC(N(C)C)CC1 [Compound J-68] | 41 nM | 7600 nM | IC50 (A431 cells): 388 nM; Selective inhibitory activities against cell [IC50(A431 cell)/IC50(H1975 cell)] (H1975 cells): 8.1; IC50 (H1975 cells): 48 nM |
| C=CC(=O)Nc1cc(Nc2ncc(Cl)c(NC3CCN(S(C)(=O)=O)CC3)n2)c(OC)cc1N1CCC(N(C)C)CC1 [Compound J-69] | 105 nM | > 10000 nM |  |
| C=CC(=O)Nc1cc(Nc2ncc(Cl)c(N(C)C3CN(S(C)(=O)=O)C3)n2)c(OC)cc1N1CCC(N(C)C)CC1 [Compound J-73] | 24 nM | > 10000 nM | IC50 (A431 cells): 494 nM; Selective inhibitory activities against cell [IC50(A431 cell)/IC50(H1975 cell)] (H1975 cells): 19; IC50 (H1975 cells): 26 nM |
| C=CC(=O)Nc1cc(Nc2ncc(Cl)c(NC3CC3)n2)c(OC)cc1N1CCC(N(C)C)CC1 [Compound J-74] | 216 nM |  | IC50 (A431 cells): 2030 nM; Selective inhibitory activities against cell [IC50(A431 cell)/IC50(H1975 cell)] (H1975 cells): 7.7; IC50 (H1975 cells): 264 nM |
| C=CC(=O)Nc1cc(Nc2ncc(Cl)c(OC3(C)CN(S(C)(=O)=O)C3)n2)c(OC)cc1N1CCC(N(C)C)CC1 [Compound J-75] | 463 nM |  | IC50 (A431 cells): > 10000 nM; Selective inhibitory activities against cell [IC50(A431 cell)/IC50(H1975 cell)] (H1975 cells): >22.8; IC50 (H1975 cells): 438 nM |
| C=CC(=O)Nc1cc(Nc2ncc(Cl)c(OC3CN(S(C)(=O)=O)C3)n2)ccc1N1CCC(N(C)C)CC1 [Compound J-76] | 14 nM |  |  |
